# Experimental data from patent publication US20250129102A1, “CRYSTAL FORM OF PYRIMIDINE HETEROCYCLIC COMPOUND AND PREPARATION METHOD THEREFOR” (D3 Bio (Wuxi) Co., Ltd., priority 2021, published 2025).
# Tests used:
# Format in all cases: in vitro ADME
# [1] = Metabolic stability in hepatocytes, human; settings: cryopreserved hepatocytes
# Protocol: Metabolic stabilities of assay compound in hepatocytes of CD-1 mice, SD rats, beagle dogs, cynomolgus monkeys, and human were assayed, respectively.
# Several 96-well sample precipitation plates were prepared and named T0, T15, T30, T60, T90, T120, T0-MC, T120-MC and blank substrates, respectively. The recovery medium and incubation medium were taken out in advance and placed in a 37° C. water bath for pre-heating. Cryopreserved hepatocytes were removed from the liquid nitrogen tank and immediately immersed in a 37° C. water bath (approximately 90 seconds). After the cryopreserved hepatocytes had thawed and loosened, they were poured into a centrifuge tube containing 40 mL of recovery medium, and the tube was gently inverted to allow the cells to be resuspended in the recovery medium. The cells were centrifuged at 100×g at room temperature for 5 min, and the supernatant was removed. The hepatocytes were resuspended in an appropriate volume of incubation medium, and the cell viability was calculated by Trypan Blue staining method. 198 μL of hepatocyte suspension (0.51×10^6 cells/mL) was added to the preheated incubation plate. For the culture medium control group, 198 μL of hepatocyte-free incubation medium was added to T0-MC and T120-MC incubation plate. All incubation plates were pre-incubated in a 37° C. incubator for 10 minutes. Then 2 μL of working solutions of the assay sample and the control compound were added, respectively, and the mixture was mixed well. The incubation plate was immediately put into the shaker in the incubator, and the reaction was initiated while starting the timer. For each time point of each compound, 2 duplicate samples were prepared. The incubation conditions were 37° C., saturated humidity, and 5% CO2. […] All samples were mixed well and analyzed by LC/MS/MS.
# [2] = In vitro stability in liver microsomes, human; settings: 0.5 mg/mL
# Protocol: (§1) Metabolic stabilities of the assay compound in liver microsomes of CD-1 mice, SD rats, beagle dogs, cynomolgus monkeys, and human were assayed, respectively.
# (§2) Two 96-well incubation plates were prepared and named T60 incubation plate and NCF60 incubation plate, respectively. 445 μL of microsomal working solutions (liver microsomal protein concentration of 0.56 mg/mL) were added to the T60 incubation plate and the NCF60 incubation plate, respectively, and then the above incubation plates were pre-incubated in a 37° C. water bath for about 10 minutes.
# (§3) After the pre-incubation, 5 μL of working solutions of the assay sample or the control compound were added to the T60 incubation plate and the NCF60 incubation plate, respectively, and the mixture was mixed well. 50 μL of potassium phosphate buffer was added to each well of the NCF60 incubation plate to initiate the reaction. 180 μL of stop solution (200 ng/mL tolbutamide and 200 ng/mL labetalol in acetonitrile) and 6 uL of NADPH regeneration system working solution were added to the T0 stop plate, and 54 μL of sample was transferred from T60 incubation plate to T0 stop plate (generation of T0 sample). The reaction was initiated by adding 44 μL of NADPH regeneration system working solution to each well of the T60 incubation plate. Only 54 μL of microsome working solution, 6 uL of NADPH regeneration system working solution and 180 μL of stop solution were added to the Blank plate. Therefore, in samples of the assay compound or the control compound, the final reaction concentration of compound, testosterone, diclofenac and propafenone was 1 μM, the concentration of liver microsomes was 0.5 mg/mL, and the final reaction concentrations of DMSO and acetonitrile in the reaction system were 0.01% (v/v) and 0.99% (v/v), respectively. […] All samples were injected and analyzed by liquid chromatography-tandem mass spectrometry.
# [3] = Stability in whole blood, SD rats; settings: 5 μM, 37° C.
# Protocol: (§4) Stabilities of the assay compound in whole blood of CD-1 mice, SD rats, beagle dogs and cynomolgus monkeys were assayed, respectively. On the day of the assay or the day before the assay, fresh whole blood from CD-1 mice, SD rats, beagle dogs, and cynomolgus monkeys was collected using anticoagulant EDTA-K2. Prior to the start of the assay, the whole blood was mixed with PBS in 1:1 (v: v) and the mixture was preheated in a 37° C. water bath for 10 to 20 minutes. 96-well incubation plates were prepared and named T0, T30, T60, […], respectively. In the corresponding incubation plates, including T0, T30, T60 and […] incubation plates, 2 μL of working solutions of the compound or the control compound were mixed with 98 μL of blank whole blood of mice, rats, canines, monkeys and human in duplicate. All samples were incubated in a 37° C. water bath. The final incubation concentration of the compound was 5 μM and the final incubation concentration of the control compound was 2 μM. At the end of incubation for each time point, the corresponding incubation plate was removed and 100 μL of ultrapure water was immediately added to the corresponding sample wells, and mixed well. 800 μL of a solution of 200 ng/mL tolbutamide and labetalol in acetonitrile was added to precipitate the protein. […] 150 μL of supernatant was taken out and analyzed by LC/MS/MS.
# [4] = In vitro stability in liver microsomes, SD rats; settings: rat, 0.5 mg/mL
# Protocol: as §1, §2, §3
# [5] = Stability in whole blood, cynomolgus monkeys; settings: 5 μM, 37° C.
# Protocol: as §4
smiles,measurement,setting,value
C=C(F)C(=O)N1CCN(c2nc(OC[C@@]34CCCN3C[C@H](F)C4)nc3c2CO[C@H](c2c(F)c(N)cc(C)c2C(F)(F)F)C3)C[C@@H]1CC#N [Compound of formula (I)],half-life at 1 μM,[1],99.5 min
same,hepatocyte CLint at 1 μM,[1]; read-out: CLint(hep),13.9 µL/min/1e6 cells
same,CLint scaled at 1 μM,[1]; read-out: CLint(liver),38.7 mL/min/kg
same,CLint scaled at 1 μM,[2],61.1 mL/min/kg
same,half-life at 1 μM,[2],20.4 min
same,microsomal CLint at 1 μM,[2]; read-out: CLint(hep),67.9 µL/min/mg
same,Detection of assay compound content within 240 min,[3],115%
same,CLint scaled at 1 μM,[4],108 mL/min/kg
same,half-life at 1 μM,[4],23 min
same,microsomal CLint at 1 μM,[4]; read-out: CLint(hep),60.2 µL/min/mg
same,Detection of assay compound content within 240 min,[5],77%
